Experiments:
Assay in all cases: relative viability (nuclei count vs DMSO), 5 days (fraction); higher = more cells survive
Obatoclax + Bortezomib = compound: COC1=CC(c2cc3ccccc3[nH]2)=N/C1=C\c1[nH]c(C)cc1C [Obatoclax] + CC(C)C[C@H](NC(=O)[C@H](Cc1ccccc1)NC(=O)c1cnccn1)B(O)O [Bortezomib] (partner 0.002 µM)
Method in brief: (§1)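 Medians of duplicate plates are given as relative viability. That measure is the nuclei count in treated wells divided by the count in vehicle wells. Counts were taken on 4× images of lung cancer cell lines in 1536-well plates, 5 days after pin-tool dosing the day after seeding with one drug alone or a fixed anchor-drug dose plus five library-drug doses (not always all listed) in √10 steps.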

Bortezomib + Crizotinib = compound: CC(C)C[C@H](NC(=O)[C@H](Cc1ccccc1)NC(=O)c1cnccn1)B(O)O [Bortezomib] + C[C@@H](Oc1cc(-c2cnn(C3CCNCC3)c2)cnc1N)c1c(Cl)ccc(F)c1Cl [Crizotinib] (partner 1 µM)
Method in brief: as §1

Bortezomib + Decitabine = compound: CC(C)C[C@H](NC(=O)[C@H](Cc1ccccc1)NC(=O)c1cnccn1)B(O)O [Bortezomib] + Nc1ncn([C@H]2C[C@H](O)[C@@H](CO)O2)c(=O)n1 [Decitabine] (partner 2 µM)
Method in brief: as §1

Bortezomib + Navitoclax = compound: CC(C)C[C@H](NC(=O)[C@H](Cc1ccccc1)NC(=O)c1cnccn1)B(O)O [Bortezomib] + CC1(C)CCC(c2ccc(Cl)cc2)=C(CN2CCN(c3ccc(C(=O)NS(=O)(=O)c4ccc(N[C@H](CCN5CCOCC5)CSc5ccccc5)c(S(=O)(=O)C(F)(F)F)c4)cc3)CC2)C1 [Navitoclax] (partner 0.5 µM)
Method in brief: as §1

Cell Line | relative viability (Obatoclax + Bortezomib; first compound 0.01 µM) | relative viability (Obatoclax + Bortezomib; first compound 0.03162 µM) | relative viability (Obatoclax + Bortezomib; first compound 0.1 µM) | relative viability (Obatoclax + Bortezomib; first compound 0.3162 µM) | relative viability (Obatoclax + Bortezomib; first compound 1 µM) | relative viability (Bortezomib + Crizotinib; first compound 0.0002 µM) | relative viability (Bortezomib + Crizotinib; first compound 0.000632 µM) | relative viability (Bortezomib + Crizotinib; first compound 0.002 µM) | relative viability (Bortezomib + Crizotinib; first compound 0.006325 µM) | relative viability (Bortezomib + Crizotinib; first compound 0.02 µM) | relative viability (Bortezomib + Decitabine; first compound 0.0002 µM) | relative viability (Bortezomib + Decitabine; first compound 0.000632 µM) | relative viability (Bortezomib + Decitabine; first compound 0.002 µM) | relative viability (Bortezomib + Decitabine; first compound 0.006325 µM) | relative viability (Bortezomib + Decitabine; first compound 0.02 µM) | relative viability (Bortezomib + Navitoclax; first compound 0.0002 µM) | relative viability (Bortezomib + Navitoclax; first compound 0.000632 µM) | relative viability (Bortezomib + Navitoclax; first compound 0.002 µM) | relative viability (Bortezomib + Navitoclax; first compound 0.006325 µM) | relative viability (Bortezomib + Navitoclax; first compound 0.02 µM)
HARA | 1.1 | 0.759 | 1.17 | 1.02 | 0.724 | 0.961 | 0.966 | 0.789 | 0.0536 | 0.067 | 0.459 | 0.569 | 0.415 | 0.125 | 0.124 | 1.14 | 1.16 | 1.12 | 0.075 | 0.108
HCC-15 | 0.973 | 1.02 | 0.926 | 0.957 | 0.739 | 0.784 | 0.825 | 0.904 | 0.46 | 0.0815 | 0.626 | 0.619 | 0.598 | 0.111 | 0.114 | 0.706 | 0.681 | 0.692 | 0.421 | 0.116
IA-LM | 0.838 | 0.723 | 0.727 | 0.0591 | 0.0714 | 0.996 | 0.699 | 0.559 | 0.0382 | 0.0338 |  |  |  |  |  | 1.07 | 0.865 | 0.994 | 0.0167 | 0.0073
LCLC-103H | 1.01 | 1 | 0.992 | 1.07 | 1.05 | 1.04 | 1.04 | 0.997 | 0.756 | 0.207 | 0.66 | 0.727 | 0.68 | 0.274 | 0.221 |  |  |  |  | 
LK-2 |  |  |  |  |  |  | 0.243 | 0.277 | 0.207 | 0.222 | 0.274 | 0.384 | 0.281 | 0.227 | 0.15 | 0.828 | 0.878 | 0.238 | 0.172 | 0.174
NCI-H358 |  |  |  |  |  | 0.63 | 0.56 | 0.503 | 0.126 | 0.113 | 0.204 | 0.207 | 0.191 | 0.0949 | 0.0871 |  |  |  |  | 
NCI-H522 |  |  |  |  |  |  |  |  |  |  | 0.777 | 0.621 | 0.575 | 0.432 | 0.386 |  |  |  |  | 
NCI-H661 | 0.805 | 0.704 | 0.865 | 0.843 | 0.786 | 1.1 | 1.03 | 1.16 | 0.82 | 0.269 | 0.553 | 0.553 | 0.529 | 0.395 | 0.204 |  |  |  |  | 
NCI-H1299 | 0.969 | 1.05 | 0.982 | 1 | 0.93 | 0.943 | 0.965 | 0.969 | 0.39 | 0.152 |  |  |  |  |  | 0.981 | 0.988 | 1.01 | 0.397 | 0.142
NCI-H1395 |  |  |  |  |  |  |  |  |  |  | 0.774 | 0.702 | 0.431 | 0.287 | 0.297 | 1.27 | 1.52 | 0.448 | 0.39 | 0.345
NCI-H1563 | 0.905 | 0.883 | 0.835 | 0.714 | 0.833 | 0.894 | 0.902 | 0.732 | 0.522 | 0.443 |  |  |  |  |  |  |  |  |  | 
NCI-H1648 |  |  |  |  |  |  |  |  |  |  | 0.516 | 0.444 | 0.366 | 0.453 | 0.292 |  |  |  |  | 
NCI-H1703 | 0.456 | 0.38 | 0.304 | 0.227 | 0.22 | 0.561 | 0.495 | 0.133 | 0.101 | 0.081 |  |  |  |  |  | 1.21 | 1.01 | 0.188 | 0.139 | 0.085
NCI-H1793 |  |  |  |  |  |  |  |  |  |  | 0.492 |  | 0.507 | 0.334 | 0.146 | 0.418 | 0.463 | 0.599 | 0.409 | 0.149
NCI-H1944 |  |  |  |  |  | 1.06 | 1.04 | 0.899 | 1.21 | 0.142 | 0.414 | 0.429 | 0.461 | 0.402 | 0.248 | 1.06 | 0.992 | 1.12 | 1.05 | 0.887
NCI-H2170 |  |  |  |  |  | 1.03 | 1.02 | 1.11 | 0.233 | 0.18 | 0.462 | 0.465 | 0.444 | 0.377 | 0.126 | 0.425 | 0.548 | 0.6 | 0.169 | 0.172
NCI-H2228 | 0.96 | 1.01 | 1.25 | 0.626 | 0.367 | 0.521 | 0.482 | 0.376 | 0.166 | 0.163 |  |  |  |  |  | 1 | 1.05 | 0.368 | 0.0925 | 0.0601
NCI-H2342 |  |  |  |  |  |  |  |  |  |  | 0.818 | 0.795 | 0.694 | 0.725 | 0.436 |  |  |  |  | 
SK-MES-1 |  |  |  |  |  | 0.967 | 0.994 | 0.935 | 0.261 | 0.161 | 0.444 | 0.411 | 0.379 | 0.194 | 0.156 | 1.24 | 1.28 | 1.22 | 0.198 | 0.146
SW 900 |  |  |  |  |  |  |  |  |  |  | 0.347 | 0.423 | 0.227 | 0.206 | 0.284 |  |  |  |  | 

Source: the supplement of paper PMC10307832
